Test results taken from ChEMBL document CHEMBL1147574, “Synthesis of a novel peptidic photoaffinity probe for the PTP-1B enzyme” (Bioorg Med Chem Lett, 2004).

What was measured:
[1] = Percent adduct formed by co-valent binding to the enzyme was assessed by irradiating a solution of the photoprobe and the PTP1B enzyme with a 40W lamp
[2] = Inhibitory activity of compound against phosphotyrosine phosphatase-1B

| Adduct formation [1] | IC50 [2] | SMILES |
| --- | --- | --- |
| < 5% | 15 nM | NC(=O)[C@H](Cc1ccc(C(F)(F)P(=O)(O)O)cc1)NC(=O)[C@H](Cc1cc(Br)cc(C2(C(F)(F)F)N=N2)c1)NC(=O)c1cc(Br)cc(C2(C(F)(F)F)N=N2)c1 |
| 5% | 3 nM | NC(=O)[C@H](Cc1ccc(C(F)(F)P(=O)(O)O)cc1)NC(=O)[C@H](Cc1ccc(C(F)(F)P(=O)(O)O)cc1)NC(=O)[C@H](CCC(=O)O)NCc1cc(Br)cc(C2(C(F)(F)F)N=N2)c1 |
| – | 12 nM | NC(=O)[C@H](Cc1ccc(C(F)(F)P(=O)(O)O)cc1)NC(=O)[C@H](Cc1ccc(C(F)(F)P(=O)(O)O)cc1)NC(=O)c1cc(Br)cc(C2(C(F)(F)F)N=N2)c1 |
| 8% | 14 nM | NC(=O)[C@H](Cc1ccc(C(F)(F)P(=O)(O)O)cc1)NC(=O)[C@H](Cc1ccc(C(F)(F)P(=O)(O)O)cc1)NC(=O)[C@H](CCC(=O)O)NC(=O)c1cc(Br)cc(C2(C(F)(F)F)N=N2)c1 |
| – | 9500 nM | NC(=O)[C@H](Cc1ccc(C(F)(F)P(=O)(O)O)cc1)NC(=O)c1cc(Br)cc(C2(C(F)(F)F)N=N2)c1 |
| – | 1700 nM | NC(=O)[C@H](Cc1ccc(C(F)(F)P(=O)(O)O)cc1)NC(=O)[C@H](Cc1ccc(C(F)(F)P(=O)(O)O)cc1)NCc1cc(Br)cc(C2(C(F)(F)F)N=N2)c1 |
| 6% | 0.3 nM | NC(=O)[C@H](Cc1ccc(C(F)(F)P(=O)(O)O)c(Br)c1)NC(=O)[C@H](Cc1ccc(C(F)(F)P(=O)(O)O)c(Br)c1)NC(=O)c1cc(Br)cc(C2(C(F)(F)F)N=N2)c1 |
| 8% | 9 nM | NC(=O)[C@H](Cc1ccc(C(F)(F)P(=O)(O)O)cc1)NC(=O)[C@H](Cc1ccc(C(F)(F)P(=O)(O)O)cc1)NC(=O)c1cc(I)cc(C2(C(F)(F)F)N=N2)c1 |
| 8% | 4 nM | NC(=O)[C@H](Cc1ccc(C(F)(F)P(=O)(O)O)c(Br)c1)NC(=O)[C@H](Cc1ccc(C(F)(F)P(=O)(O)O)c(Br)c1)NC(=O)c1cc(I)cc(C2(C(F)(F)F)N=N2)c1 |
